Tests used:
[1] = Fluorescence emission of myricetin derivatives (fluorimetry); format: physicochemical; settings: 2.5 μM in ethanol (KB861 in THF); for λmax (nm): fluorescence emission
Experimental: All the KBX compounds and Myricetin were prepared for analysis of their fluorescent properties (Table 1) using ethanol as the solvent, with the exception of KB861 which used tetrahydrofuran (THF). All measurements were taken at a compound concentration of 2.5 μM.

Caco-2 cells [2] = assay: Probe fluorescence in menadione stressed versus healthy Caco-2 cells (fluorescence microscopy); format: cell-based, human; settings: for Effect of menadione concentration on intracellular fluorescence: Caco-2, 1, 10 and 20 μM menadione; for Decrease in fluorescence in stressed cells compared to healthy cells: confluent Caco-2, menadione stress, 20 μM probe; for Fluorescence in menadione exposed cultures relative to control non-stressed cultures: pre-confluent, proliferating Caco-2 cultures
Experimental: Initially, confluent Caco-2 cells were placed under stress using menadione then incubated with 20 μM KB861 for 30 minutes. The fluorescence of KB861 in stressed cells was then compared to that of KB861 in healthy cells using fluorescence microscopy (FIG. 5).
Confluent Caco-2 cells were placed under stress using Menadione then incubated with 20 μM KB474 for 1 minute (FIG. 6) and 15 minutes (FIG. 7). The fluorescence of the compound in the stressed cells was then compared to its fluorescence in healthy Caco-2 cells.
Pre-confluent, proliferating Caco-2 cultures were also exposed to menadione prior to staining with KB861 or KB474.
The effect of menadione concentration on the intracellular fluorescence of compound KB861 and KB474 was also investigated.

Caco-2 cells [3] = assay: Probe fluorescence in Caco-2 cells after glutathione depletion by BSO; format: cell-based, human; settings: Caco-2, glutathione depleted by progressive BSO exposure
Text: To examine probe sensitivity to a less severe, more gradually provoked physiological oxidative stress within Caco-2 cells, cellular glutathione was depleted by progressive buthionine sulphoximine (BSO) exposure.

[4] = In vitro oxidation of KB861 solutions, analysed by fluorimetry; format: physicochemical
Experimental: A series of K5861 solutions (0.5, 1.0, and 1.5 μM) were prepared using THF. […] Another series of KB861 solutions of the same concentrations were prepared and analysed by fluorimetry in their natural unoxidised state (Graph 1).

Emission intensity [1] | λmax (nm) [1] [nm] | Fluorescence emission at 540 nm, natural unoxidised state ([4]; 0.5, 1.0, 1.5 μM in THF) | Fluorescence emission at 540 nm after oxidation ([4]; 0.5, 1.0, 1.5 μM in THF, oxidised by excess AgO) | Fluorescence on exposure to hydrogen peroxide ([4]; hydrogen peroxide as stated) | SMILES | Effect of menadione concentration on intracellular fluorescence (Caco-2 cells [2]) | Decrease in fluorescence in stressed cells compared to healthy cells (Caco-2 cells [2]; 1 minute and 15 minutes) | Fluorescence in menadione exposed cultures relative to control non-stressed cultures (Caco-2 cells [2]) | Fluorescence emission after BSO exposure (Caco-2 cells [3]) | Decrease in fluorescence in stressed cells compared to healthy cells (Caco-2 cells [2]; 30 minutes)
0.199 | 517.0 | – | – | – | O=c1c(O)c(-c2cc(O)c(O)cc2O)oc2ccccc12 [AOX563] | – | – | – | – | –
321.113 | 504.9 | – | – | – | CCc1ccc2c(=O)c(O)c(-c3cc(O)c(O)c(O)c3)oc2c1 [KB474, 7-ethyl-3-hydroxy-2-(3,4,5-trihydroxyphenyl)-4H-1-benzopyran-4-one] | dose dependent decrease | at least 75% | dramatically decreased | striking decrease | –
0.286 | 514.1 | – | – | – | CCCCCCCCCCc1ccc2c(=O)c(O)c(-c3cc(O)c(O)cc3O)oc2c1 [AOX166] | – | – | – | – | –
17.419 | 499.5 | – | – | – | O=c1c(O)c(-c2cc(O)c(O)c(O)c2)oc2cc(O)cc(O)c12 [Myricetin, 3,5,7-trihydroxy-2-(3,4,5-trihydroxyphenyl)-4H-1-benzopyran-4-one, reference compound] | – | – | – | – | –
664.669 | 544.7 | highly fluorescent | almost completely disappears | diminished | CCCCCCCCCCc1ccc2c(=O)c(O)c(-c3cc(O)c(O)c(O)c3)oc2c1 [KB861, 7-decyl-3-hydroxy-2-(3,4,5-trihydroxyphenyl)-4H-1-benzopyran-4-one] | correlated with the concentration of menadione exposure | – | dramatically decreased | striking decrease | 30-40%
0.166 | 457.1 | – | – | – | O=c1c(O)c(-c2ccc(O)c(O)c2O)oc2ccccc12 [AOX558] | – | – | – | – | –

— patent US20100151508A1, “COMPOUNDS” (THE ROBERT GORDON UNIVERSITY, priority 2006, published 2010)
